Assay results from patent US9370183B2, “Use of ALS inhibitor herbicides for control of unwanted vegetation in ALS inhibitor herbicide tolerant Brassica, such as B. napus, plants” (Bayer Intellectual Property GmbH, priority 2011, dated 2016).
Like-named read-outs stand apart in the source and are kept apart here.

Columns and labels:
B. napus mutant FM 202 = format: in vivo, Brassica napus; conditions: spray at BBCH 12-13 with Mero 1 l/ha, visual scoring 14 days after application, 0%=no damage, 100%=all plants dead
Method: (§1) The individual components herbicide and surfactant with regard to type and application rate as stated in table 1 were added with stirring to a water application rate of 300 l/ha so that a homogeneous spray mixture was formed. The adjuvant Mero® (Bayer CropScience AG: active ingredient is 81% rapeseed oil methyl ester) was always added to the spray liquids with a use rate of one l/ha.
(§2) Seeds of B. napus were sown in a sandy loam soil and placed in a climate chamber in a greenhouse under good growth conditions (16 h light, temperature day 14° C., night: 8° C.). The plants (10 per experiment) were grown up to growth stage of BBCH 12 to BBCH 13. […] After the treatment, the plants were returned to the climate chamber.
(§3) Visual scoring was carried out using a percentage scale of 0%=no damage to 100%=all plants dead.

[1] = test system: B. napus wild type variety SR002201; experiment: Greenhouse herbicide injury, visual scoring, wild type variety; format: in vivo, Brassica napus; conditions: spray at BBCH 12-13 with Mero 1 l/ha, visual scoring 14 days after application, 0%=no damage, 100%=all plants dead
Method: as §1, §2, §3

[2] = biological target: T1, A. thaliana A205V-mutant ALS (Arabidopsis thaliana, UniProt P17597, A205V/E575Q); experiment: biochemical; conditions: negative logarithm of the molar concentration inhibiting the enzyme activity by 50%, crude extract of E. coli expressing A. thaliana A205V ALS, 75 min, 30° C.; for IC50: read-out: ALS PI50 A205V (converted)
T1 construct: vector-encoded fusion of pET-32a(+) (Trx/His/S-tag by own knowledge of the vector); made in house; host or cells: Escherichia coli AD494
Method: (§4) Bacteria were grown at 37° C. in LB-medium containing 100 mg/l carbenicillin and 25 mg/l canamycin, induced with 1 mM isopropyl-β-D-thiogalactopyranoside at an OD600 of 0.6, cultivated for 16 hours at 18° C. and harvested by centrifugation. Bacterial pellets were resuspended in 100 mM sodium phosphate buffer pH 7.0 containing 0.1 mM thiamine-pyrophosphate, 1 mM MgCl2, and 1 μM FAD at a concentration of 1 gram wet weight per 25 ml of buffer and disrupted by sonification. The crude protein extract obtained after centrifugation was used for ALS activity measurements.
(§5) Assays were initiated by adding enzyme and terminated after 75 min incubation at 30° C. by the addition of 40 μl 0.5 M H2SO4.

[3] = biological target: T2, A. thaliana S653N-mutant ALS (Arabidopsis thaliana, UniProt P17597, E575Q/S653N); experiment: biochemical; conditions: negative logarithm of the molar concentration inhibiting the enzyme activity by 50%, crude extract of E. coli expressing A. thaliana S653N ALS, 75 min, 30° C.; for IC50: read-out: ALS PI50 S653N (converted)
T2 construct: vector-encoded fusion of pET-32a(+) (Trx/His/S-tag by own knowledge of the vector); made in house; host or cells: Escherichia coli AD494
Method: as §4, §5

[4] = biological target: T3, A. thaliana wild-type ALS (Arabidopsis thaliana, UniProt P17597, E575Q); experiment: biochemical; conditions: negative logarithm of the molar concentration inhibiting the enzyme activity by 50%, crude extract of E. coli expressing A. thaliana wild-type ALS, 75 min, 30° C.; for IC50: read-out: ALS PI50 WT (converted)
T3 construct: vector-encoded fusion of pET-32a(+) (Trx/His/S-tag by own knowledge of the vector); made in house; host or cells: Escherichia coli AD494
Method: as §4, §5

[5] = biological target: T4, A. thaliana W574L-mutant ALS (Arabidopsis thaliana, UniProt P17597, E575Q/W574L); format: biochemical; conditions: negative logarithm of the molar concentration inhibiting the enzyme activity by 50%; crude extract of E. coli expressing A. thaliana W574L ALS; 75 min, 30° C.
T4 construct: vector-encoded fusion of pET-32a(+) (Trx/His/S-tag by own knowledge of the vector); made in house; host or cells: Escherichia coli AD494
Method: as §4, §5

T1 sequence (P17597 56-670 A205V/E575Q): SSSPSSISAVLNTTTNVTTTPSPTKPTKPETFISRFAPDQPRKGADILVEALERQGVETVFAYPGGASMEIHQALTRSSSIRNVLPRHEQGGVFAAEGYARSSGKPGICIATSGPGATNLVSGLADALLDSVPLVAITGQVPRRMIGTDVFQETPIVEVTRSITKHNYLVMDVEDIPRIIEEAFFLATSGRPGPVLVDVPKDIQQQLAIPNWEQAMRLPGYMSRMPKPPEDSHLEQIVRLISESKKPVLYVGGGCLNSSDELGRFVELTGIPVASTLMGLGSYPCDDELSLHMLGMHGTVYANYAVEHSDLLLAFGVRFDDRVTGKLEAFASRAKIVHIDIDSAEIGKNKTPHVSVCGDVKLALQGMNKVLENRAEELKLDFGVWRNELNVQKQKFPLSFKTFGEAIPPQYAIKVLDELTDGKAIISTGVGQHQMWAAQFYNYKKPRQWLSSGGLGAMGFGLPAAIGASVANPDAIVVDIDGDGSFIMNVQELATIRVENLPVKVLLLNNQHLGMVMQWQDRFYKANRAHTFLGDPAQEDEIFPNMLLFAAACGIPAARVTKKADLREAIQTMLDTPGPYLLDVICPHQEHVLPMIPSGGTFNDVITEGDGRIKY
T2 sequence (P17597 56-670 E575Q/S653N): as the sequence (P17597 56-670 A205V/E575Q) above, with V150A, S598N counted along it
T3 sequence (P17597 56-670 E575Q): as the sequence (P17597 56-670 A205V/E575Q) above, with V150A counted along it
T4 sequence (P17597 56-670 W574L/E575Q): as the sequence (P17597 56-670 A205V/E575Q) above, with V150A, W519L counted along it

With `COC(=O)c1ccccc1S(=O)(=O)NC(=O)N(C)c1nc(C)nc(OC)n1` the “Herbicide injury on BRSNS [%] FM 202” value (B. napus mutant FM 202; 30 g a.i./ha) was 3% and the “Herbicide injury on BRSNS [%] SR002201” value ([1]; 30 g a.i./ha) was 95%.

For `COc1cc(OC)nc(NC(=O)NS(=O)(=O)N(C)S(C)(=O)=O)n1` [Amidosulfuron, amidosulfuron], the IC50 [2] was 12600 nM and the IC50 [3] was 1.26 nM.

`COc1cc(OC)nc(Oc2cccc(Oc3nc(OC)cc(OC)n3)c2C(=O)O)n1` [Bispyribac-sodium, bispyribac-sodium] was tested, and the IC50 [4] was 15.8 nM, the IC50 [2] was 100 nM and the IC50 [3] was 158 nM.

For `COc1nc(C)nc(NC(=O)NS(=O)(=O)c2ccccc2Cl)n1` [Chlorsulfuron, chlorsulfuron], the “Herbicide injury on BRSNS [%] FM 202” value (B. napus mutant FM 202; 9 g a.i./ha) was 0% and the “Herbicide injury on BRSNS [%] SR002201” value ([1]; 9 g a.i./ha) was 97%.

For `CCOc1ccccc1OS(=O)(=O)NC(=O)Nc1nc(OC)cc(OC)n1` [Ethoxysulfuron, ethoxysulfuron], the “Herbicide injury on BRSNS [%] FM 202” value (B. napus mutant FM 202; 60 g a.i./ha) was 0% and the “Herbicide injury on BRSNS [%] SR002201” value ([1]; 60 g a.i./ha) was 98%.

Work on `COc1cc(OC)nc(NC(=O)NS(=O)(=O)c2ncccc2C(F)(F)F)n1` [Flazasulfuron, flazasulfuron] yielded an IC50 [4] of 2.51 nM and an IC50 [2] of 15.8 nM.

With `COc1ncc(F)c2nc(S(=O)(=O)Nc3c(F)cccc3F)nn12` [Florasulam, florasulam] the “ALS PI50 W574L” value [5] was 4.6, the “ALS PI50 WT” value [4] was 7.9 and the “ALS PI50 A205V” value [2] was 6.1. For the same molecule, the “ALS PI50 S653N” value [3] was 7.6.

In the case of `COc1cc(OC)nc(NC(=O)NS(=O)(=O)c2cc(NC=O)ccc2C(=O)N(C)C)n1` [Foramsulfuron, foramsulfuron], the IC50 [2] was 501 nM.

In the case of `COCc1cnc(C2=NC(C)(C(C)C)C(=O)N2)c(C(=O)O)c1` (stereo not shown) [Imazamox, imazamox], the “Herbicide injury on BRSNS [%] FM 202” value (B. napus mutant FM 202; 40 g a.i./ha) was 0%, the “Herbicide injury on BRSNS [%] SR002201” value ([1]; 40 g a.i./ha) was 93% and the IC50 [2] was over 100000 nM.

`COC(=O)c1ccc(I)cc1S(=O)(=O)[N-]C(=O)Nc1nc(C)nc(OC)n1.[Na+]` [Iodosulfuron-methy-sodium, iodosulfuron-methyl-sodium] was tested, and the “Herbicide injury on BRSNS [%] FM 202” value (B. napus mutant FM 202; 7 g a.i./ha) was 0% and the “Herbicide injury on BRSNS [%] SR002201” value ([1]; 7 g a.i./ha) was 95%.

With `COC(=O)c1ccc(CNS(C)(=O)=O)cc1S(=O)(=O)NC(=O)Nc1nc(OC)cc(OC)n1` [Mesosulfuron-methyl, mesosulfuron-methyl] the “Herbicide injury on BRSNS [%] FM 202” value (B. napus mutant FM 202; 15 g a.i./ha) was 0% and the “Herbicide injury on BRSNS [%] SR002201” value ([1]; 15 g a.i./ha) was 90%.

In the case of `COc1cc(OC)n2nc(S(=O)(=O)Nc3c(Cl)ccc(C)c3Cl)nc2n1` [Metosulam, metosulam], the IC50 [4] was 3.16 nM, the IC50 [2] was 794 nM and the IC50 [3] was 39.8 nM.

`COC(=O)c1ccccc1S(=O)(=O)NC(=O)Nc1nc(C)nc(OC)n1` [Metsulfuron-methyl, metsulfuron-methyl] was tested, and the “Herbicide injury on BRSNS [%] FM 202” value (B. napus mutant FM 202; 8 g a.i./ha) was 0% and the “Herbicide injury on BRSNS [%] SR002201” value ([1]; 8 g a.i./ha) was 93%.

`COc1cc(OC)nc(NC(=O)NS(=O)(=O)c2ncccc2C(=O)N(C)C)n1` [Nicosulfuron, nicosulfuron] gave an IC50 [4] of 63.1 nM, an IC50 [2] of 1000 nM and an IC50 [3] of 1580 nM.

`CCS(=O)(=O)c1cccnc1S(=O)(=O)NC(=O)Nc1nc(OC)cc(OC)n1` [Rimsulfuron, rimsulfuron] showed an IC50 [4] of 10 nM, an IC50 [2] of 158 nM and an IC50 [3] of 2.51 nM.

`CCS(=O)(=O)c1nc2ccccn2c1S(=O)(=O)NC(=O)Nc1nc(OC)cc(OC)n1` [Sulfosulfuron, sulfosulfuron] was tested, and the IC50 [4] was 15.8 nM, the IC50 [2] was 1260 nM and the IC50 [3] was 79.4 nM.

`COC(=O)c1csc(C)c1S(=O)(=O)NC(=O)n1nc(OC)n(C)c1=O` [Thiencarbazone-methyl, thiencarbazone-methyl] was tested, and the “Herbicide injury on BRSNS [%] FM 202” value (B. napus mutant FM 202; 20 g a.i./ha) was 0% and the “Herbicide injury on BRSNS [%] SR002201” value ([1]; 20 g a.i./ha) was 90%.

With `COC(=O)c1sccc1S(=O)(=O)NC(=O)Nc1nc(C)nc(OC)n1` [Thifensulfuron-Methyl, thifensulfuron-methyl] the IC50 [4] was 31.6 nM, the IC50 [2] was 631 nM and the IC50 [3] was 158 nM.

In the case of `COC(=O)c1cccc(C)c1S(=O)(=O)NC(=O)Nc1nc(OCC(F)(F)F)nc(N(C)C)n1` [Triflusulfuron, triflusulfuron-methyl], the “Herbicide injury on BRSNS [%] FM 202” value (B. napus mutant FM 202; 20 g a.i./ha) was 0% and the “Herbicide injury on BRSNS [%] SR002201” value ([1]; 20 g a.i./ha) was 65%.
